Experimental data published in US6225307A, “Viral treatment” (priority 2000, dated 2001).

Test system: HIV-1 cell line, CEMIIIB
Assay: Long term in vitro study, CEMIIIB cells, reverse transcriptase analysis
Assay type: cell-based
Parameters: Reverse transcriptase data: unit not given here
Protocol: A microtiter-based reveres transcriptase (RT) reaction is utilized (Buckheit et al (1991) AIDS Research and Human Retroviruses 7:295-302). Tritiated thymidine triphosphate (NEN)(TTP) is resuspended in distilled water at 5 Ci/ml. Poly rA and oligo dT are prepared as a stock solution which is kept at -20° C. The RT reaction buffer is prepared fresh on a daily basis and consists of 125 μl 1M EGTA, 125 μl water, 125 μl Triton X-100, 50 μl Tris (pH 7.4), 50 μl MDDT, and 40 μl 1M MgCl2. These three solutions are mixed together in a ratio of 1 part TTP, 2.5 parts poly rA:oligo dT, 2.5 parts reaction buffer and 4 parts distilled water. Ten microliters of this reaction mixture is placed in a round bottom microtiter place and 15 μl of virus containing supernatant is added and mixed. The plate is incubated at 37° C. and incubated for 60 minutes. Following reaction, the reaction volume is spotted onto filter mats, washed 6 times for 5 minutes each in a 5% sodium phosphate buffer, 2 times for 1 minute each in distilled water, 2 times for 1 minute each in 70% ethanol, and then dried. The dried filter mat is placed in a plastic sample bag, Betaplate scintillation fluid is added and the bag is heat sealed. Incorporated radioactivity is quantified utilizing a Wallac Microbeta scintillation counter.
Acute infection of most established human cell lines with HIV- I results in the eventual establishment of a constitutive virus-producing chronically infected cell line. The cells can be passaged for long periods of time in culture without loss of virus production. These cells may be utilized to evaluate the effects of anti-HIV compounds on syncytium formation or to evaluate the effects of anti-HIV compounds on levels of virus production from these cells. […] Each of the cells contains an integrated HIV genome or provirus. Chronically infected CEM, H9 and U937 cell lines have been prepared and cultured by Southern Research Institute, Frederick Md. and are available from them.
CEM-SS cells chronically infected with HIV isolate, for example SKI (CEM-SKI) are cultured in RPM1640 tissue culture medium supplemented with 10% fetal bovine serum and antibiotics. Selection is performed by culturing the cells in the presence of the compound to be tested in T25 flasks. CEM-SKI or other infected cells with no added drug are used as the control cells. Cells are allowed to grow to a density of approximately 1×10^6 cells/ml and are then passaged at a 1:10 dilution. After a period of time, usually one week intervals of drug treatment, cells are evaluated to determine if the inhibitory activity of the compound has been affected by treatment of the cells with either compounds. The drug concentration in the flask is then increased two-fold and the cells maintained as above.
The cell populations contain integrated copies of the HIV genome and constitutively produce HIV at relatively high levels or are latently infected and only produce virus after stimulation with phorbol esters, tumor necrosis factor or IL6(U1 and ACH2). Reductions in virus products were observed when quantifying supernatant reverse transcriptase activity,
Toxicity Values are measured by XTT and activity of the compound in the tests is measured by a Reverse Transcriptase analysis.
A long term in vitro study of 3-hexahydro-3-ethyl-1-methyl-2-oxo-1H-azepin-3-yl)phenyl ester of 4-chlorophenyl carbamic acid against an HIV-1 cell line, CEMIIIB was conducted at three different levels. The results with CEIIIB cells were reported at weekly intervals. The CEMIIIB is a […] of the CEMSS cell line and is a chronic HIV cell line.

SMILES: CCC1(c2cccc(OC(=O)Nc3ccc(Cl)cc3)c2)CCCCN(C)C1=O (stereo not shown) [(4-chlorophenyl)-carbamic acid, 3-(hexahydro-3-ethyl-1-methyl-2-oxo-1H-azepin-3-yl) 2 phenyl ester]
- Reverse transcriptase data, continued test: data remained consistent
- Reverse transcriptase data (7 μg/ml, Day 4): 1643
- Reverse transcriptase data (7 μg/ml, Day 11): 1294
- Reverse transcriptase data (7 μg/ml, Day 18): 1521
- Reverse transcriptase data (7 μg/ml, Day 25): 1725
- Reverse transcriptase data (7 μg/ml, Day 32): 1239
- Reverse transcriptase data (7 μg/ml, Day 39): 1341
- Reverse transcriptase data (7 μg/ml, Day 46): 1694
- Reverse transcriptase data (7 μg/ml, Day 53): 1287
- Reverse transcriptase data (7 μg/ml, Day 60): 1631
- Reverse transcriptase data (7 μg/ml, Day 67): 1245
- Reverse transcriptase data (7 μg/ml, Day 71): 1483
- Reverse transcriptase data (7 μg/ml, Day 74): 1502
- Reverse transcriptase data (7 μg/ml, Day 88): 7383
- Reverse transcriptase data (7 μg/ml, Day 95): 5512
- Reverse transcriptase data (7 μg/ml, Day 102): 8512
- Reverse transcriptase data (7 μg/ml, Day 109): 58104
- Reverse transcriptase data (15 μg/ml, Day 4): 1526
- Reverse transcriptase data (15 μg/ml, Day 11): 1168
- Reverse transcriptase data (15 μg/ml, Day 18): 1241
- Reverse transcriptase data (15 μg/ml, Day 25): 1361
- Reverse transcriptase data (15 μg/ml, Day 32): 1168
- Reverse transcriptase data (15 μg/ml, Day 39): 1162
- Reverse transcriptase data (15 μg/ml, Day 46): 1084
- Reverse transcriptase data (15 μg/ml, Day 53): 902
- Reverse transcriptase data (15 μg/ml, Day 60): 1310
- Reverse transcriptase data (15 μg/ml, Day 67): 1093
- Reverse transcriptase data (15 μg/ml, Day 71): 1056
- Reverse transcriptase data (15 μg/ml, Day 74): 763
- Reverse transcriptase data (15 μg/ml, Day 88): 4415
- Reverse transcriptase data (15 μg/ml, Day 95): 3205
- Reverse transcriptase data (15 μg/ml, Day 102): 6902
- Reverse transcriptase data (15 μg/ml, Day 109): 60170
- Reverse transcriptase data (30 μg/ml, Day 4): 602
- Reverse transcriptase data (30 μg/ml, Day 11): 265
- Reverse transcriptase data (30 μg/ml, Day 18): 581
- Reverse transcriptase data (30 μg/ml, Day 25): 496
- Reverse transcriptase data (30 μg/ml, Day 32): 268
- Reverse transcriptase data (30 μg/ml, Day 39): 381
- Reverse transcriptase data (30 μg/ml, Day 46): 562
- Reverse transcriptase data (30 μg/ml, Day 53): 308
- Reverse transcriptase data (30 μg/ml, Day 60): 241
- Reverse transcriptase data (30 μg/ml, Day 67): 301
- Reverse transcriptase data (30 μg/ml, Day 71): 321
- Reverse transcriptase data (30 μg/ml, Day 74): 202
- Reverse transcriptase data (30 μg/ml, Day 88): 370
- Reverse transcriptase data (30 μg/ml, Day 95): 299
- Reverse transcriptase data (30 μg/ml, Day 102): 928
- Reverse transcriptase data (30 μg/ml, Day 109): 2019
